Measured values published in patent publication US7611853B2, “Assay to screen for anti-malarials” (priority 2002, dated 2009).

Key:
Plasmodium falciparum = experiment: Growth inhibitory effect of GA on synchronous parasites (Giemsa-stained smears); format: cell-based
Description: In order to check if GA could inhibit Plasmodium falciparum growth in vitro, we prepared highly synchronous ring-infected parasites using 5% sorbitol. These ring-staged parasites were suspended in RPMI to make 5% hematocrit. […] This correlates with elevated expression of Pfhsp90 in the trophozoite stage compared to ring stage.

[1] = system: Plasmodium falciparum ring-infected erythrocytes; experiment: Anti-malarial effect of GA and HA on overall parasitemia (giemsa staining); format: cell-based
Procedure: To show the effects of GA on overall parasitemia, ring-infected erythrocytes were either treated with DMSO or with 5 μM GA for 48 hrs (culture was replenished with medium and GA every 24 hrs) and parasitemia was calculated by giemsa staining. While the mock-treated parasites multiplied at the end of 48 hrs, parasitemia was reduced to 50 percent in GA treated cultures by 48 hrs.

| SMILES | inhibition at 10 µM (Plasmodium falciparum; Plasmodium falciparum, GA added in the trophozoite stage, 10 μM) [%] | concentration of maximal growth inhibition (Plasmodium falciparum; ring-staged parasites, 24 h) [µM] | parasitemia reduced to ([1]; ring-infected erythrocytes, 5 μM, 48 hrs, replenished every 24 hrs) [%] | anti-malarial effect (summary statement) [1] | concentration of maximal reduction in parasitemia ([1]; 0.5, 1, 5 and 10 μM tested, 48 hrs) [µM] |
| --- | --- | --- | --- | --- | --- |
| COC1=C2C[C@@H](C)C[C@H](OC)[C@H](O)[C@@H](C)/C=C(\C)[C@H](OC(N)=O)[C@@H](OC)/C=C\C=C(/C)C(=O)NC(=CC1=O)C2=O [GA, Geldanamycin] | 100 | 5 | 50 |  |  |
| CO[C@H]1[C@@H](OC)C[C@H](C)[C@@H](OC)C2=CC(=O)C=C(NC(=O)/C(C)=C/C=C\[C@H](OC)[C@@H](OC(N)=O)/C(C)=C/[C@@H]1C)C2=O [HA, Herbimycin A] |  |  |  | kill the malarial parasite at the stage of early trophozoite development | 10 |
